Converted amounts (≈) assume the structure as drawn. The source made the active and inactive calls. The calls are words filed in the database; no cut-off is given here.
What was measured:
[1] = test system: Acinetobacter baumannii; assay: Antibacterial activity against carbapenemase producing Acinetobacter baumannii ATCC 17978-PNT-165 after 18 hrs by broth microdilution method; format: functional; conditions: ATCC 17978-PNT-165, 18 h
[2] = test system: Staphylococcus aureus; assay: Antibacterial activity against Staphylococcus aureus SG 511 after 18 hrs by broth microdilution method; format: functional; conditions: SG 511, 18 h
[3] = test system: Salmonella typhimurium; assay: Antibacterial activity against Salmonella typhimurium ATCC 13311 after 18 hrs by broth microdilution method; format: functional, Salmonella enterica subsp. enterica serovar Typhimurium; conditions: Salmonella enterica, ATCC 13311, 18 h
[4] = test system: Klebsiella aerogenes; assay: Antibacterial activity against Enterobacter aerogenes X816 after 18 hrs by broth microdilution method; format: functional; conditions: X816, 18 h
[5] = test system: Proteus mirabilis; assay: Antibacterial activity against Proteus mirabilis X235 after 18 hrs by broth microdilution method; format: functional; conditions: X235, 18 h
[6] = test system: Pseudomonas aeruginosa; assay: Antibacterial activity against Pseudomonas aeruginosa KW799/wt after 18 hrs by broth microdilution method; format: functional
[7] = test system: Burkholderia dolosa; assay: Antibacterial activity against Burkholderia dolosa AU0018 after 18 hrs by broth microdilution method; format: functional; conditions: AU0018, 18 h
[8] = test system: Acinetobacter baumannii; assay: Antibacterial activity against Acinetobacter baumannii ATCC BAA 1800 after 18 hrs by broth microdilution method; format: functional; conditions: ATCC BAA 1800, 18 h
[9] = test system: Pseudomonas aeruginosa; assay: Antibacterial activity against Pseudomonas aeruginosa ARC 3506 after 18 hrs by broth microdilution method; format: functional; conditions: ARC 3506, 18 h
[10] = test system: Acinetobacter baumannii; assay: Antibacterial activity against Acinetobacter baumannii ATCC BAA 1793 after 18 hrs by broth microdilution method; format: functional
[11] = test system: Citrobacter freundii; assay: Antibacterial activity against Citrobacter freundii ATCC 29063 after 18 hrs by broth microdilution method; format: functional; conditions: ATCC 29063, 18 h
[12] = test system: Escherichia coli; assay: Antibacterial activity against Escherichia coli DC0 after 18 hrs by broth microdilution method; format: functional; conditions: DC0, 18 h
[13] = test system: Pseudomonas aeruginosa; assay: Antibacterial activity against Pseudomonas aeruginosa ARC 3506 after 18 hrs in presence of tazobactam by broth microdilution method; format: functional; conditions: ARC 3506, 18 h
[14] = test system: Acinetobacter baumannii; assay: Antibacterial activity against Acinetobacter baumannii ATCC 17961 after 18 hrs by broth microdilution method; format: functional; conditions: ATCC 17961, 18 h
[15] = test system: Pseudomonas aeruginosa; assay: Antibacterial activity against Pseudomonas aeruginosa 01 after 18 hrs by broth microdilution method; format: functional; conditions: Pseudomonas aeruginosa, 01, 18 h
[16] = test system: Pseudomonas aeruginosa; assay: Antibacterial activity against clinical isolates of Pseudomonas aeruginosa ISR-14-003 after 18 hrs by broth microdilution method; format: functional
[17] = test system: Acinetobacter baumannii; assay: Antibacterial activity against clinical isolates of Acinetobacter baumannii ARC 5079 in presence of tazobactam after 18 hrs by broth microdilution method; format: functional; conditions: ARC 5079, 18 h
[18] = test system: Acinetobacter baumannii; assay: Antibacterial activity against clinical isolates of Acinetobacter baumannii ARC 5079 after 18 hrs by broth microdilution method; format: functional
[19] = test system: Acinetobacter baumannii; assay: Antibacterial activity against cephalosporinase producing Acinetobacter baumannii ATCC 17978-PNT-320 after 18 hrs by broth microdilution method; format: functional
[20] = test system: Acinetobacter baumannii; assay: Antibacterial activity against Acinetobacter baumannii ATCC BAA 1797 after 18 hrs by broth microdilution method; format: functional; conditions: ATCC BAA 1797, 18 h
[21] = test system: Acinetobacter baumannii; assay: Antibacterial activity against clinical isolates of Acinetobacter baumannii ISR14-005 after 18 hrs by broth microdilution method; format: functional
[22] = test system: Pseudomonas aeruginosa; assay: Antibacterial activity against clinical isolates of Pseudomonas aeruginosa ISR-14-004 after 18 hrs by broth microdilution method; format: functional
[23] = test system: Pseudomonas aeruginosa; assay: Antibacterial activity against Pseudomonas aeruginosa ARC 3502 after 18 hrs by broth microdilution method; format: functional; conditions: ARC 3502, 18 h
[24] = test system: Acinetobacter baumannii; assay: Antibacterial activity against clinical isolates of Acinetobacter baumannii ISR14-005 after 18 hrs in presence of tazobactam by broth microdilution method; format: functional; conditions: ISR14-005, 18 h
[25] = test system: Pseudomonas aeruginosa; assay: Antibacterial activity against clinical isolates of Pseudomonas aeruginosa ISR-14-003 after 18 hrs in presence of tazobactam by broth microdilution method; format: functional; conditions: ISR-14-003, 18 h
[26] = test system: Pseudomonas aeruginosa; assay: Antibacterial activity against Pseudomonas aeruginosa ARC 3502 after 18 hrs in presence of tazobactam by broth microdilution method; format: functional; conditions: ARC 3502, 18 h
[27] = test system: Pseudomonas aeruginosa; assay: Antibacterial activity against clinical isolates of Pseudomonas aeruginosa ISR-14-004 after 18 hrs in presence of tazobactam by broth microdilution method; format: functional; conditions: ISR-14-004, 18 h
[28] = test system: Acinetobacter baumannii; assay: Antibacterial activity against Acinetobacter baumannii ATCC BAA 1800 at 10 ug/ml after 18 hrs by broth microdilution method; format: functional
[29] = test system: Acinetobacter baumannii; assay: Antibacterial activity against Acinetobacter baumannii ATCC BAA 1793 at 10 ug/ml after 18 hrs by broth microdilution method; format: functional

Compound	MIC [1]	MIC [2]	MIC [3]	MIC [4]	MIC [5]	MIC [6]	MIC [7]	MIC [8]	MIC [9]	MIC ([10]; ATCC BAA 1793, 18 h)	MIC [11]	MIC [12]	MIC [14]	MIC [15]	MIC ([16]; ISR-14-003, 18 h)	MIC ([18]; ARC 5079, 18 h)	MIC ([19]; ATCC 17978-PNT-320, 18 h)	MIC ([21]; ISR14-005, 18 h)	MIC ([22]; ISR-14-004, 18 h)	MIC [23]	further results
C[C@H]1[C@H](NC(=O)/C(=N\OC(C)(C)C(=O)O)c2csc(N)n2)C(=O)N1S(=O)(=O)O [AZTREONAM]	12.5 µM (≈ 5.44 µg/mL)	> 50 µM	0.1 µM (≈ 0.0435 µg/mL)	0.2 µM (≈ 0.0871 µg/mL)	0.05 µM (≈ 0.0218 µg/mL)	1.6 µM (≈ 0.697 µg/mL)	> 50 µM	12.5 to 25 µM (≈ 5.44 to 10.9 µg/mL)	12.5 to 50 µM	12.5 to 25 µM (≈ 5.44 to 10.9 µg/mL)	0.1 µM (≈ 0.0435 µg/mL)	0.1 µM (≈ 0.0435 µg/mL)	–	–	–	–	–	–	–	–	–
CC(C)(O/N=C(\C(=O)N[C@@H]1C(=O)N(S(=O)(=O)O)[C@H]1CSCCN)c1cnc(N)s1)C(=O)O	50 µM (≈ 25.5 µg/mL)	> 50 µM	4.5 µM (≈ 2.3 µg/mL)	9.4 µM (≈ 4.8 µg/mL)	3 µM (≈ 1.53 µg/mL)	> 50 µM	> 50 µM	≥ 50 µM	> 50 µM	≥ 50 µM	3 µM (≈ 1.53 µg/mL)	6 µM (≈ 3.06 µg/mL)	> 50 µM	> 50 µM	> 50 µM	> 50 µM	> 50 µM	> 50 µM	> 50 µM	≥ 50 µM	MIC [13]: > 50 µM; MIC [17]: > 50 µM; MIC [20]: 50 µM (≈ 25.5 µg/mL)
COC(=O)CSC[C@H]1[C@H](NC(=O)Cc2ccccc2)C(=O)N1S(=O)(=O)O	> 50 µM	> 50 µM	> 50 µM	> 50 µM	> 50 µM	> 50 µM	> 50 µM	> 50 µM	> 50 µM	> 50 µM	> 50 µM	> 50 µM	> 50 µM	> 50 µM	> 50 µM	> 50 µM	> 50 µM	> 50 µM	> 50 µM	> 50 µM	MIC [20]: > 50 µM
CO/N=C(\C(=O)N[C@@H]1C(=O)N(S(=O)(=O)O)[C@H]1CSCCN)c1cnc(N)s1	50 µM (≈ 21.9 µg/mL)	> 50 µM	12.5 µM (≈ 5.48 µg/mL)	0.2 µM (≈ 0.0877 µg/mL)	12.5 µM (≈ 5.48 µg/mL)	> 50 µM	–	–	> 50 µM	–	12.5 µM (≈ 5.48 µg/mL)	25 µM (≈ 11 µg/mL)	50 µM (≈ 21.9 µg/mL)	> 50 µM	> 50 µM	–	–	> 50 µM	> 50 µM	> 50 µM	MIC [20]: > 50 µM
CC(C)(O/N=C(\C(=O)N[C@@H]1C(=O)N(S(=O)(=O)O)[C@H]1CSCCNC(=O)CN(CCCCNC(=O)c1cccc(O)c1O)C(=O)c1cccc(O)c1O)c1cnc(N)s1)C(=O)O	0.4 µM (≈ 0.364 µg/mL)	> 50 µM	0.025 µM (≈ 0.0228 µg/mL)	0.075 µM (≈ 0.0683 µg/mL)	< 0.025 µM	0.4 µM (≈ 0.364 µg/mL)	> 50 µM	0.1 to 0.4 µM (≈ 0.0911 to 0.364 µg/mL)	> 50 µM	0.1 to 0.4 µM (≈ 0.0911 to 0.364 µg/mL)	0.05 µM (≈ 0.0455 µg/mL)	< 0.025 µM	0.2 µM (≈ 0.182 µg/mL)	0.4 µM (≈ 0.364 µg/mL)	1.6 µM	1.6 to 25 µM	0.4 µM	> 50 µM	6 µM	> 50 µM	MIC [13]: 1.6 to 25 µM; MIC [24]: 25 µM; MIC [17]: 1.6 to 50 µM; MIC [20]: 0.4 µM (≈ 0.364 µg/mL); MIC [25]: 1.6 µM; MIC [26]: 1.6 µM; MIC [27]: 3 µM
POLYMYXIN B	–	–	–	–	–	–	–	–	–	–	–	–	–	–	–	–	–	–	–	–	MIC [16]: 0.1 µM; MIC [18]: < 0.1 µM; MIC [19]: < 0.025 µM; MIC [21]: < 0.025 µM; MIC [10]: < 0.025 µM; MIC [22]: 0.05 µM
C[C@]1(Cn2ccnn2)[C@H](C(=O)O)N2C(=O)C[C@H]2S1(=O)=O [TAZOBACTAM]	–	–	–	–	–	–	> 50 µM	–	> 10 µg/mL	–	–	–	–	–	> 20 µg/mL	> 10 µg/mL	< 10 µg/mL	> 20 µg/mL	> 20 µg/mL	> 10 µg/mL	Activity [28]: inactive; Activity [29]: inactive
